Calls of active or inactive are those of the source.

In test [1] the target is Metabotropic glutamate receptor 4 (Rattus norvegicus, UniProt P31423). The experiment in a line: Modulation of the Metabotropic Glutamate Receptor mGluR4: Rat PAM Potency. [Related pubchem assays (depositor defined):AID2437, AID2807]. The format is functional.
The target of test [2] is Scavenger receptor class B member 1 (Mus musculus, UniProt Q61009). Kind of test: mouse SR-BI DiI-HDL uptake blockers – ldlA[mSR-BI] cells, fluorescence, cherry pick, dose response (AID 493194).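 Also: cellular uptake of fluorescent DiI-labeled HDL measured as cell fluorescence.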 The format is functional, cell-based.
Scavenger receptor class B member 1, sequence (Q61009 whole entry): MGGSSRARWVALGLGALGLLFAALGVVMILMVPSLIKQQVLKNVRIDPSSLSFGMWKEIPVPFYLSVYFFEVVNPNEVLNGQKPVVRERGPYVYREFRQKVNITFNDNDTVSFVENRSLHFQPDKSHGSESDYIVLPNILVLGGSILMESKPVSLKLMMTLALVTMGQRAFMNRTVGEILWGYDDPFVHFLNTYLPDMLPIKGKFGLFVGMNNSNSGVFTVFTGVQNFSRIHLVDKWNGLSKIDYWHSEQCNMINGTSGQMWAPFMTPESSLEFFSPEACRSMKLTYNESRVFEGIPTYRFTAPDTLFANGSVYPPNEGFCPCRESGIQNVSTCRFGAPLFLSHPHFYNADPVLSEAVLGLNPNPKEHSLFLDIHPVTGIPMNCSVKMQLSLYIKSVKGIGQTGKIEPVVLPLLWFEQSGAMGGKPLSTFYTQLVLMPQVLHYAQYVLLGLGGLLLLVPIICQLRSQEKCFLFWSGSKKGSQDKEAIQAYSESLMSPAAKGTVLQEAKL
Test [3] deals with Serine/threonine-protein phosphatase PP1-alpha catalytic subunit (Homo sapiens, UniProt P62136). Kind of test: inhibition of protein phosphatase 1 activity – biochemical, fluorescence, dose response (AID 2394).
Serine/threonine-protein phosphatase PP1-alpha catalytic subunit, sequence (P62136 whole entry): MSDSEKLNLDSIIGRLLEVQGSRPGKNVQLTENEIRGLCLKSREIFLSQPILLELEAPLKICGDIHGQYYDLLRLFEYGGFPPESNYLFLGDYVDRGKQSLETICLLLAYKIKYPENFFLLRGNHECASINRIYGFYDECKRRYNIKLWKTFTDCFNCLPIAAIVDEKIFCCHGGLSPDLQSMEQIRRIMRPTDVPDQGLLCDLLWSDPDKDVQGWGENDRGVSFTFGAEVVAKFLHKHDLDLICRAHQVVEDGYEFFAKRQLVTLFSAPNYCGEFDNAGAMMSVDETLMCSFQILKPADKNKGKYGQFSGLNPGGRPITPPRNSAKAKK
Test [4] has as its target T1, SUMO-activating enzyme (Homo sapiens, UniProt Q9UBT2). The experiment in a line: blockers of UBC9-mediated SUMO conjugation – biochemical, AlphaScreen, SUMOylation inhibitor project, confirmation (AID 2018). The format is functional. Background: In Alpha technology, singlet oxygen from a donor bead excites a nearby acceptor bead.
For test [5], the target named is T1, SUMO-activating enzyme. Kind of test: blockers of SAE1/SAE2–UBC9 SUMO transfer – biochemical, HTRF, uHTS, primary screen (AID 2006). The format is protein-complex assay. A general note: TR-FRET usually uses a lanthanide donor and a delayed reading to cut background.
Test [6] is described as follows: Trypanosoma cruzi growth suppression in host cells – NIH3T3 host cells, beta-gal luminescence, confirmation (AID 2044).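 Also: intracellular parasites grown in NIH/3T3 mouse fibroblasts as host cells; luminescent beta-galactosidase reporter signal from transgenic T. cruzi replicating inside host cells; inhibitors lower the luminescence signal.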 The format is functional, cell-based.
In test [7] the target is Serine/threonine-protein phosphatase (Homo sapiens, UniProt Q9BPW0). The experiment in a line: inhibition of protein phosphatase 5 activity – biochemical, fluorescence, dose response (AID 2395).
Serine/threonine-protein phosphatase, sequence (Q9BPW0 whole entry): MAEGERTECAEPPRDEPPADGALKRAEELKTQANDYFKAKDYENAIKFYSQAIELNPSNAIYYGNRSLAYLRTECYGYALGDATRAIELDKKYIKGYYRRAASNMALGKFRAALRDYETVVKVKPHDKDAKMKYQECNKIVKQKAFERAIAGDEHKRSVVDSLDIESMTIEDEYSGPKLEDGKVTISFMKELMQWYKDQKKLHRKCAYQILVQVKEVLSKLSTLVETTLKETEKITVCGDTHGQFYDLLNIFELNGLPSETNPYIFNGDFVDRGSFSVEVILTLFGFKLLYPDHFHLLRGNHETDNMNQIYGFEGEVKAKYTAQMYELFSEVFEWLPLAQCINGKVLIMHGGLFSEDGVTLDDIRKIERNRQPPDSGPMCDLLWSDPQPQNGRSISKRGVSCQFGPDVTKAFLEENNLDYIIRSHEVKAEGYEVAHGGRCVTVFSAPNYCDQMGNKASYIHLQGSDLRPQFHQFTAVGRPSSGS
Test [8] can be described thus: NIH3T3 cell viability loss – ATP luminescence, mouse fibroblasts, counter-screen, dose response (AID 2010).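 Also: cells exposed to compound for about 90 hours before reading.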 The format is functional, cell-based.
Test [9] concerns the target Heat shock protein HSP 90-alpha (Homo sapiens, UniProt P07900). Kind of test: Luminescence-based dose response biochemical high throughput screening assay for inhibitors of the Heat Shock Protein 90 (HSP90). [Related pubchem assays: 1831 (Summary AID.), 1846 (Confirmation screen.), 1789 (Primary screen.)].
For the next test, the target named is T2, Hexokinase HKDC1 (Homo sapiens, UniProt Q2TB90).
T2 sequence (Q2TB90 whole entry): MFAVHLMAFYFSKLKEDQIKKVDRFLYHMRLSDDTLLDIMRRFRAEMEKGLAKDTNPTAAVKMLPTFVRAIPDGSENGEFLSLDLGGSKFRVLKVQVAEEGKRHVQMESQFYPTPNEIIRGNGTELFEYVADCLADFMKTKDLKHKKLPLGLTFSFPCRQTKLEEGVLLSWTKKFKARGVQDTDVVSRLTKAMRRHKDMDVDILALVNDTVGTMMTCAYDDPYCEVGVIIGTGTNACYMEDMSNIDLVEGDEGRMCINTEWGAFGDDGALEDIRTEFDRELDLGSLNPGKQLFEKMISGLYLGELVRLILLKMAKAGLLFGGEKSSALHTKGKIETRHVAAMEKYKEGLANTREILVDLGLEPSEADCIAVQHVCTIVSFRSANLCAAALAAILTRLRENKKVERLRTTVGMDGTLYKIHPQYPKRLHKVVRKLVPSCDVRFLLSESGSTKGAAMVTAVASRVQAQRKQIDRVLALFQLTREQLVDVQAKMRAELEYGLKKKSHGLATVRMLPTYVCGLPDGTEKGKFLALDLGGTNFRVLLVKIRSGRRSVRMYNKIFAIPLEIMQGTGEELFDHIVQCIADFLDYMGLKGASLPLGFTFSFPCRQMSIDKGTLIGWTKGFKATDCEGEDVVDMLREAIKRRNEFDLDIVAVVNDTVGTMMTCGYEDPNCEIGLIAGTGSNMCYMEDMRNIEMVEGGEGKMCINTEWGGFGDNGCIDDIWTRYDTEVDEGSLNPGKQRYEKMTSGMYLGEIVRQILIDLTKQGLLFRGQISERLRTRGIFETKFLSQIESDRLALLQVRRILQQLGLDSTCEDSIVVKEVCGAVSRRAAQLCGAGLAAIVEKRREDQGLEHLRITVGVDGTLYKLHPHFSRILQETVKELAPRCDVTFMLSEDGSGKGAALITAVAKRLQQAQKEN
Kind of test: inhibition of HKDC1 glucose phosphorylation – biochemical, W721R variant, dose response (AID 504729). The format is functional.

Test [10] concerns the target T3, Apoptotic protease-activating factor 1 (Homo sapiens, UniProt O14727).
T3 sequence (O14727 whole entry): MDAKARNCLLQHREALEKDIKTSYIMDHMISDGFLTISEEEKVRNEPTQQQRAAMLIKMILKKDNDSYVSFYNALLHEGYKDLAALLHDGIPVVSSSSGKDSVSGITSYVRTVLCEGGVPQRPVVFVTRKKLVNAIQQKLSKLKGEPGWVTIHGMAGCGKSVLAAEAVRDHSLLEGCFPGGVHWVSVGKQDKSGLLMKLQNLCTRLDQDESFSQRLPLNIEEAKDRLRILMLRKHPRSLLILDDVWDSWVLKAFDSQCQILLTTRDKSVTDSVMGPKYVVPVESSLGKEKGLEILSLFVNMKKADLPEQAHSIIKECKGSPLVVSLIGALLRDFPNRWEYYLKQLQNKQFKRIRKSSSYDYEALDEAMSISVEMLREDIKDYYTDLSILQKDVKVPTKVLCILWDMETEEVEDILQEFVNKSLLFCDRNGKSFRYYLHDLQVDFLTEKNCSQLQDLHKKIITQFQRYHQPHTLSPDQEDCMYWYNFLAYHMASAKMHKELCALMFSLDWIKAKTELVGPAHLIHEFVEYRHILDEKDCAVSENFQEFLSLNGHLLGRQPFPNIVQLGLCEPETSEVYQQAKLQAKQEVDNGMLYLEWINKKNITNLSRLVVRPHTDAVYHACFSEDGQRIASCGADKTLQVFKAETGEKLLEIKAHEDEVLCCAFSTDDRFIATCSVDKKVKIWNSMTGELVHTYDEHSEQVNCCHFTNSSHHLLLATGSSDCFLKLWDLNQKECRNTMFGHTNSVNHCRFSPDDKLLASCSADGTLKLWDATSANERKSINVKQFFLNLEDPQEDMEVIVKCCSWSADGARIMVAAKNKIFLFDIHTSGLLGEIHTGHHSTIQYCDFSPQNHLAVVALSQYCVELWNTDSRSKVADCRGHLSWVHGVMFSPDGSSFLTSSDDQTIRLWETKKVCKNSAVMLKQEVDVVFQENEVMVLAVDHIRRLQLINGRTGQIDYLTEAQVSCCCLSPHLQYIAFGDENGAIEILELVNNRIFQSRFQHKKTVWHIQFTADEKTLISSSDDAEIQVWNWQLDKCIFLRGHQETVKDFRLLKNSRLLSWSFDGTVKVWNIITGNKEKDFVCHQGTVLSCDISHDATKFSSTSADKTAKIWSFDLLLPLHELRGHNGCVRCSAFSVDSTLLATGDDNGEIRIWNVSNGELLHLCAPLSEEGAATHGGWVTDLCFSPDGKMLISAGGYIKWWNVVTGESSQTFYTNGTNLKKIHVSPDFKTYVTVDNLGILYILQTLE
The format is functional.

The test system of the next test is INS1. The experiment in a line: INS-1E survival protection against cytokine death – cell-based, luminescence, retest, dose response (AID 449756).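 Also: cell death triggered by IL-1 beta plus TNF-alpha plus IFN-gamma mixture; protective hits raise ATP signal compared with cytokine alone wells.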 The format is functional. The following applies: Rattus norvegicus.
Test [11] has as its target T4, Mitochondrial peptide methionine sulfoxide reductase (Bos taurus, UniProt P54149).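 Also: absorbance read-out, biochemical high-throughput dose-response screen for MsrA inhibitors, confirmatory; recombinant bovine MsrA coupled to E. coli TrxB with NADPH and selenocystamine; potency is for inhibitors of MsrA activity on DMSO substrate.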
T4 sequence (P54149 whole entry): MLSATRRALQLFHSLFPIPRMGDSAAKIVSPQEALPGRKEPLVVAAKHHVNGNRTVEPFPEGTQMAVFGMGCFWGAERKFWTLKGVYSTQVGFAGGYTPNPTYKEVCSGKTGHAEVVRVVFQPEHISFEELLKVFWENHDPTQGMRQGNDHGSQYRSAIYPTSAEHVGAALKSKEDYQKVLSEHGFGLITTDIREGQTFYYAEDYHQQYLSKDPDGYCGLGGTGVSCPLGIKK
The format is functional.

A further test concerns the target Tumor necrosis factor (Homo sapiens, UniProt P01375). The experiment in a line: analog potency on TNFa NF-kB signaling – cell-based, revised, SAR follow-up (AID 2337). The format is functional.
Test [12] concerns the target T5, Nucleotide-binding oligomerization domain-containing protein 1 (Homo sapiens, UniProt Q9Y239).
T5 sequence (Q9Y239 whole entry): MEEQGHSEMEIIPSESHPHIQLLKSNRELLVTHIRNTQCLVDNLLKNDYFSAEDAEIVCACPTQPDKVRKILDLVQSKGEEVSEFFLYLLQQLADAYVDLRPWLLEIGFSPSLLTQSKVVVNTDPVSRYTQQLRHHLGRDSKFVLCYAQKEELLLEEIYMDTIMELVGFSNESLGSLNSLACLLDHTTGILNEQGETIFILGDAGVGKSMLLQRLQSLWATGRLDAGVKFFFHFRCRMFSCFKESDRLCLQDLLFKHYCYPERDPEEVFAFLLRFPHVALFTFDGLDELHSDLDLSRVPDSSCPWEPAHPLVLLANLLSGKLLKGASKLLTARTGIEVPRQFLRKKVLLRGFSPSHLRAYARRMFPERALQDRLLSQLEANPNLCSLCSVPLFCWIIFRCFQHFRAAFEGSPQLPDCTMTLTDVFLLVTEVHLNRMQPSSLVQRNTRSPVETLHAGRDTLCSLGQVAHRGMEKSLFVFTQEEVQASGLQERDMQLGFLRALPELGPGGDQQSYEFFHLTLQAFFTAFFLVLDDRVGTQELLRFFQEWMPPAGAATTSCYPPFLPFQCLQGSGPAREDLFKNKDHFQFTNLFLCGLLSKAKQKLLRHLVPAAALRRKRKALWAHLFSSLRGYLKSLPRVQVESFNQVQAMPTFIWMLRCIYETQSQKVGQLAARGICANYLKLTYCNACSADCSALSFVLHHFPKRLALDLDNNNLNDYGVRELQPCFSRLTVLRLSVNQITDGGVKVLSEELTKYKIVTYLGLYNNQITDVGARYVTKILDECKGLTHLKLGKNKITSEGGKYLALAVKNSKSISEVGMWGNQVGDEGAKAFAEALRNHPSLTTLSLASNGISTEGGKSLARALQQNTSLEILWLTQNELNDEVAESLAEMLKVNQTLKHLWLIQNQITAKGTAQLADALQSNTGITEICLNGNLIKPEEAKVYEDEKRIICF
The experiment in a line: blockers of NOD1 pathway activity – revised, SAR follow-up (AID 2333). The format is functional.

Test [13] deals with Nucleotide-binding oligomerization domain-containing protein 2 (Homo sapiens, UniProt Q9HC29). Kind of test: PubChem AID 2334. The format is functional.
Nucleotide-binding oligomerization domain-containing protein 2, sequence (Q9HC29 whole entry, the tested form may be a part): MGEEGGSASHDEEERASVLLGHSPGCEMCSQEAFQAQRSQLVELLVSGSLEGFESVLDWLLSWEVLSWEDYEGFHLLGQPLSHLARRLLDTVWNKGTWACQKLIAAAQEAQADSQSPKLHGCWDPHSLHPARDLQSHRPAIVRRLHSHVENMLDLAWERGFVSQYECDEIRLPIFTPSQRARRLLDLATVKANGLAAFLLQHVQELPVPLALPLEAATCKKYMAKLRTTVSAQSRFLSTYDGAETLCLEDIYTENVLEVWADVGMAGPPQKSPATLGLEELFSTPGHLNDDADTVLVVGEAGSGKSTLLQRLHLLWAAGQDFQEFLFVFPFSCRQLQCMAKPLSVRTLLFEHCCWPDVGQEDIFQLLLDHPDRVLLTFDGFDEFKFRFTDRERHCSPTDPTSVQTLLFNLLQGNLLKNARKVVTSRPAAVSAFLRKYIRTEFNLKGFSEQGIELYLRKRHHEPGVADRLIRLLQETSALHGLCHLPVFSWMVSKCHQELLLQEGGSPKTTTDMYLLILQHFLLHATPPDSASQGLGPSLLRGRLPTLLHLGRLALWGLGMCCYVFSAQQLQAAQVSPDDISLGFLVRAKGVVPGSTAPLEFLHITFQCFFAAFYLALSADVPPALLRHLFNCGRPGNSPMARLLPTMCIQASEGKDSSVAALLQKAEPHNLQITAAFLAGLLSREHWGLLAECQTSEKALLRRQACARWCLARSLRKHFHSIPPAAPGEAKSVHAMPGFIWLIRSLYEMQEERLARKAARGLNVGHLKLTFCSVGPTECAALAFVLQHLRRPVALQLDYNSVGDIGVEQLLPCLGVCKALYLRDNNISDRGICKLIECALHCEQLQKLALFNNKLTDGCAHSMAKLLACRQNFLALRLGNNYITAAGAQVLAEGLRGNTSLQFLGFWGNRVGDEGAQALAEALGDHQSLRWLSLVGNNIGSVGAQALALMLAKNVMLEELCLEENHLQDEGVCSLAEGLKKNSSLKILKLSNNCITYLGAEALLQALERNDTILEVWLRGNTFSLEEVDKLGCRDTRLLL
Test [14] is described as follows: HIV-1 AD8 envelope cell-cell fusion blockers – cherry-pick, dose response (AID 652062).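 Also: luciferase signal from cell-cell fusion driven by HIV-1 clade B AD8 Env; potency is for inhibitors of fusion seen as a drop in luminescence.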 The format is functional, cell-based.
The test system of the next test is HEK293. Kind of test: cells. Particulars: Homo sapiens.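 Also: cells exposed to compound for 14 hours overnight before viability readout.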

T1 sequence (Q9UBE0 whole entry): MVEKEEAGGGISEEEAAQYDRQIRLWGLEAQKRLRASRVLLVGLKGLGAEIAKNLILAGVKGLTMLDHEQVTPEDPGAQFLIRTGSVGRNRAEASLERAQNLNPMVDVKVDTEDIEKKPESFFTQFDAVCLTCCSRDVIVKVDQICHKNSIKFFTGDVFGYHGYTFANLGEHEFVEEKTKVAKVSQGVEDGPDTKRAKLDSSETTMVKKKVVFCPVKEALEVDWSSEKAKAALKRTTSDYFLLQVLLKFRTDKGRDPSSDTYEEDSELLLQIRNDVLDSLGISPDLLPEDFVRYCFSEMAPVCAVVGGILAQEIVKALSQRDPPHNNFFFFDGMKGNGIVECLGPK
T1 sequence (Q9UBT2 whole entry): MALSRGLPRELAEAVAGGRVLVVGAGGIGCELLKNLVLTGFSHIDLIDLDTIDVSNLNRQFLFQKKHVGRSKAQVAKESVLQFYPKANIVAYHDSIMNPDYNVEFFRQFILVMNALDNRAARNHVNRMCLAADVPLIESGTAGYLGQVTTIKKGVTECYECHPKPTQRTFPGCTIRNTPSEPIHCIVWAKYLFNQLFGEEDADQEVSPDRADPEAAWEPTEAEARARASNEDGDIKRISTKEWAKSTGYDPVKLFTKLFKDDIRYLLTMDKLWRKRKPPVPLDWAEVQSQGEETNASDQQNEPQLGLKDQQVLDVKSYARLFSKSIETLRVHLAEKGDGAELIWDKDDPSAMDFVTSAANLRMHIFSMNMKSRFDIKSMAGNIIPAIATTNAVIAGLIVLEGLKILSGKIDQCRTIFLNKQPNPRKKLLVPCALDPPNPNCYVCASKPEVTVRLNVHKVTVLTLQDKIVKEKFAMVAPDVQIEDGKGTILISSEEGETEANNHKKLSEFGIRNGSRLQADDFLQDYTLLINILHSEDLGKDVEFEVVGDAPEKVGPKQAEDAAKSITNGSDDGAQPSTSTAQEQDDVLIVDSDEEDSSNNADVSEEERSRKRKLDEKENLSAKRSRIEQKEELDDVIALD
Tumor necrosis factor, sequence (P01375 whole entry, the tested form may be a part): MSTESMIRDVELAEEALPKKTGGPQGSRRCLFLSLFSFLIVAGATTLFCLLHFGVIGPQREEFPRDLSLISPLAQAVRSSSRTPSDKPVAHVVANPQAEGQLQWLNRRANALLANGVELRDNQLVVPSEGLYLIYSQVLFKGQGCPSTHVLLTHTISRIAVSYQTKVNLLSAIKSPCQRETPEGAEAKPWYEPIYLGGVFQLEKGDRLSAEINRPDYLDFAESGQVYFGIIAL
Metabotropic glutamate receptor 4, sequence (P31423 whole entry): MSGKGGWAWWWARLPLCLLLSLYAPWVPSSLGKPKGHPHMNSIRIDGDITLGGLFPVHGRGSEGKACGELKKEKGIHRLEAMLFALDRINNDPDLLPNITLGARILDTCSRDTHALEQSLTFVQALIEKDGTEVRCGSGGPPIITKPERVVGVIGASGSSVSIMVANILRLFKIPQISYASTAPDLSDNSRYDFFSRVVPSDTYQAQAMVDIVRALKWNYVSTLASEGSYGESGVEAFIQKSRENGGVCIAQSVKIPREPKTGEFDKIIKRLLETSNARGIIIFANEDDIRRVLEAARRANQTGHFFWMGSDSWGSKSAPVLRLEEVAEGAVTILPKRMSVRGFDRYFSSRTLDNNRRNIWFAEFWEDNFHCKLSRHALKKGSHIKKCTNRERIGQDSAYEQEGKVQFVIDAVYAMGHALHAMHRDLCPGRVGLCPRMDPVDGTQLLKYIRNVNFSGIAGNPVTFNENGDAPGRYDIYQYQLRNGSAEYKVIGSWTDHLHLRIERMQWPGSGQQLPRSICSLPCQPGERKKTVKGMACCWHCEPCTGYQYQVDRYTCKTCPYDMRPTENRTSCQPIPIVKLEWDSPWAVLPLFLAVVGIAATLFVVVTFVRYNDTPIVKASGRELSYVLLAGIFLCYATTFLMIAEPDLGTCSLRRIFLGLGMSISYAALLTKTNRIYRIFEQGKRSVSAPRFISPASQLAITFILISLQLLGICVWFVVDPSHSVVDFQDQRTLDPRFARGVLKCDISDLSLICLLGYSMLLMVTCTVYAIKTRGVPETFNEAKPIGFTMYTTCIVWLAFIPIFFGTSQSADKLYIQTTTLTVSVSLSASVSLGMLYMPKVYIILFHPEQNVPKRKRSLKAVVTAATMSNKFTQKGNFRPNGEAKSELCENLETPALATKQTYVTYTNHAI

By EC50 is commonly meant the concentration giving half of the maximal effect. With `O=C(Nc1ccc(N2C(=O)c3ccccc3C2=O)c(Cl)c1)c1ccccn1`, the EC50 in test [1] was 0.07 µM (active).
The term AC50 denotes the concentration at which the activity in the assay is half-maximal. In the case of `COCc1cc(=O)oc2cc(NC(=O)c3ccc(C(C)(C)C)cc3)ccc12`, the AC50 in test [2] was 50.2 µM (active).
The IC50 is the midpoint of a concentration-inhibition curve. As to `CC(=O)Nc1ccc(NC2=C/C(=N/S(=O)(=O)c3cccs3)c3ccccc3C2=O)cc1`, the IC50 in test [3] was > 67 µM (not active); at SUMO-activating enzyme [4], 1.34 µM (active); at SUMO-activating enzyme [5], > 100 µM (inactive); in test [7], 12.3 µM (not active); in test [9], 1.61 µM (active); at Hexokinase HKDC1, 3.72 µM (active). The IC50 in [10] was 1.48 µM (active); in test [11], 14.3 µM (inactive). The results for the EC50 in test [6] and in test [8] were 3.44 µM (active) and 3.58 µM (active), respectively. Also, the AC50 in the test with INS1 is 4.23 µM (active).
Consider `Cc1ccc(NC(=O)c2ccc(CN3CCc4ccccc4C3)cc2)cc1`, for which the IC50 at Tumor necrosis factor was > 20 µM (inactive); in test [12], 3.44 µM (active); in [13] it was > 20 µM (inactive); with HEK293, > 20 µM (inactive). In addition, the AC50 in [14] was 5.75 µM (active).

For the origin of these results see ChEMBL document CHEMBL1201862, “PubChem BioAssay data set” (2004).
